Test results published in the NIST ThermoML archive (doi:10.1016/j.fluid.2018.07.015).

Test: xn = mol fraction of the nth substance listed
Settings: 101 kPa, Liquid, Vibrating tube method

C=O [methanal] + O
mass density [kg/m3]
Settings	x1 = 0.0545	x1 = 0.05456	x1 = 0.09849	x1 = 0.1544	x1 = 0.2019	x1 = 0.2573
291.15 K	–	1025.9	1045.9	1070.2	1091.8	1112.8
298.15 K	1024.6	–	1044.7	1069.9	1089.4	1111.3
313.15 K	1019.6	–	1039.7	1066.9	1086.8	1109.9
